Measurements: patent publication CN111686108A, “表小檗碱在制备抗幽门螺旋杆菌感染药物中的应用” (Southwest University, priority 2020, dated 2020)
Converted amounts (≈) assume the structure as drawn. Read-outs that look alike come from different tables or passages of the source.

Columns and labels:
[1] = test system: Helicobacter pylori 11637 [幽门螺旋杆菌(11637)]; assay: MIC determination by two-fold (倍半) dilution on MH agar, single drugs and mixed drugs, H. pylori 11637; format: cell-based; conditions: for MIC: Helicobacter pylori
[2] = in words, background; cited from earlier work
BACE1 = BACE1 (Homo sapiens, UniProt P56817); conditions: in words; background; cited from earlier work
BACE1, sequence (P56817 46-501, species assumed): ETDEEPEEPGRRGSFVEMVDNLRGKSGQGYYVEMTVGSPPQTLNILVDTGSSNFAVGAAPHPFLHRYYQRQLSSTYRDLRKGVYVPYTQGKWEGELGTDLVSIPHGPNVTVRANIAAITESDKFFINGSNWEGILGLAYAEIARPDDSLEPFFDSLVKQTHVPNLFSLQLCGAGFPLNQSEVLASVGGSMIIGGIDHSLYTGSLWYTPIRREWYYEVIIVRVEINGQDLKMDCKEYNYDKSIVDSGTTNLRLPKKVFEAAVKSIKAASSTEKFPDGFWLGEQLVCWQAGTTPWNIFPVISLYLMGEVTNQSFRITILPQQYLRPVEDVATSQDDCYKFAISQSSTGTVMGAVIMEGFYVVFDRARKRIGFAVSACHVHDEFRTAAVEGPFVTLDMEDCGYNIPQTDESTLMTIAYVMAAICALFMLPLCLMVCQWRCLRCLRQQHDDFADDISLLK

aldose reductase [醛糖还原酶] = aldose reductase [醛糖还原酶] (Homo sapiens, UniProt P15121); conditions: in words; background; cited from earlier work
[3] = molecular target: cytochrome P450 isoform CYP2D6 [细胞色素P450亚型CYP2D6] (Homo sapiens, UniProt P10635); conditions: in words; background; cited from earlier work
cytochrome P450 isoform CYP2D6 [细胞色素P450亚型CYP2D6], sequence (P10635 whole entry, canonical isoform): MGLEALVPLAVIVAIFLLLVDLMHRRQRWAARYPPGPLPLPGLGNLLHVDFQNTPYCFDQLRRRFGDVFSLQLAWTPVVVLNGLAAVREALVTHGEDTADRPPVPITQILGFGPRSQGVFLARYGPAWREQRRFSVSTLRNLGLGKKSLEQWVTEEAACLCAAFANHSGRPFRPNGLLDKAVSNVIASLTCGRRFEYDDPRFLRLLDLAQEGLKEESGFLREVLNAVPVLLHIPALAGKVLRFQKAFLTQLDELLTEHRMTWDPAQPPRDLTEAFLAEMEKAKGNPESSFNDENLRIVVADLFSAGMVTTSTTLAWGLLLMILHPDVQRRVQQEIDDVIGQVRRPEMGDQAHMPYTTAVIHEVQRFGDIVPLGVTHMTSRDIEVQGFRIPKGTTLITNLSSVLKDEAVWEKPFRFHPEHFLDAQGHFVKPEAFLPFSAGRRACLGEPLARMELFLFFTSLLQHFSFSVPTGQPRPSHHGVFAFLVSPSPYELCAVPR

α receptor [α受体] = conditions: in words; background; cited from earlier work
[4] = drug alone, H. pylori 11637, MH agar, 85%N2, 10%CO2, 5%O2, 48~72h, read-out: MIC

COc1ccc2cc3[n+](cc2c1OC)CCc1cc2c(cc1-3)OCO2.[Cl-] [BBR, 小檗碱盐酸盐]
MIC ([1]; 72 h): 50 µg/mL
synergistic effect ([1]; in words, combined with omeprazole (奥美拉唑), from table 1): 有一定的协同作用

COc1cc2c(cc1OC)-c1cc3ccc4c(c3c[n+]1CC2)OCO4 [e-BBR, 表小檗碱]
in vitro hypoglycaemic activity [2]: 体外降血糖活性
BACE1 inhibitory activity (BACE1): 非竞争性BACE1抑制活性
inhibition of aldose reductase activity (aldose reductase [醛糖还原酶]): 抑制醛糖还原酶活性
MIC [1, 4]: 100 µg/mL
anti-Hp activity ([1]; in words, compared with berberine (小檗碱), from table 1): 低于小檗碱
inhibitory activity on CYP2D6 [3]: 较强的抑制活性
α receptor blocking effect (α receptor [α受体]): α受体阻断作用

CC[C@H]1OC(=O)[C@H](C)[C@@H](O[C@H]2C[C@@](C)(OC)[C@@H](O)[C@H](C)O2)[C@H](C)[C@@H](O[C@@H]2O[C@H](C)C[C@H](N(C)C)[C@H]2O)[C@](C)(OC)C[C@@H](C)C(=O)[C@H](C)[C@@H](O)[C@]1(C)O [克, 克拉霉素]
MIC [1, 4]: 0.1 µg/mL (≈ 0.134 µM)

O=C1OCCN1/N=C/c1ccc([N+](=O)[O-])o1 [呋, 呋喃唑酮]
MIC [1, 4]: 1.56 µg/mL (≈ 6.93 µM)

COc1ccc2[nH]c([S+]([O-])Cc3ncc(C)c(OC)c3C)nc2c1 (stereo not drawn) [奥, 奥美拉唑]
MIC [1, 4]: 100 µg/mL (≈ 289 µM)

C[C@H]1COc2c(N3CCN(C)CC3)c(F)cc3c(=O)c(C(=O)O)cn1c23 [左, 左氧氟沙星]
MIC [1, 4]: 3.1 µg/mL (≈ 8.58 µM)

Cc1ncc([N+](=O)[O-])n1CCO [甲, 甲硝唑]
MIC [1, 4]: 1.56 µg/mL (≈ 9.11 µM)

CC1(C)S[C@@H]2[C@H](NC(=O)[C@H](N)c3ccc(O)cc3)C(=O)N2[C@H]1C(=O)O [阿, 阿莫西林]
MIC [1, 4]: 0.05 µg/mL (≈ 0.137 µM)
